Experiment [1] deals with chloroquine (CQ) induced itch behavior. Briefly: Chloroquine-induced mouse model of acute itch and its potentiation by α,β-Me-ATP. Format: in vivo.
Experiment [2] deals with chronic itch behavior (spontaneous scratches). Briefly: AEW (acetone-ether-water) dry skin model of chronic itch. Particulars: Day 10. Format: in vivo, mouse.
Experiment [3] shares this test system. As to the kind of experiment: MC903 atopic dermatitis model of chronic itch. Format: in vivo, mouse. Conditions: Day 8. Here is the method: MC903 (calcipotriol, Tocris) was dissolved in 100% ethanol and topically applied on C57B16/J male mouse ears (4 nmol in 40 μl, 10 μl per side of ear) or nape (4 nmol in 40 μl). This regimen was administered twice daily for 7 days. Scratching behaviors were recorded 16 h after the last MC903 treatment. […] Mice were placed individually into behavior chambers and video recorded at a side angle for 60-90 minutes. A scratch was defined as a lifting of the hind limb towards the nape or head to scratch and then a replacing of the limb back to the floor, regardless of how many scratching strokes take place between lifting and lowering of the hind limb. Experimenters for injections and observers of scratching behavior were blinded to the injection compounds and groups of mice, respectively.

Each structure is given as a SMILES string.

Regarding `CCN(CC)CCCC(C)Nc1ccnc2cc(Cl)ccc12` (stereo not shown) [CQ, chloroquine, reference compound], the “number of scratches (mean ± s.e.m.)” value in experiment [1] (mouse, in vivo) was determined as 17.2±2.4 scratches.
Regarding `CNC(=O)c1cc(F)c(-c2nc3cc(C)ccn3c2C[C@H]2CN(C(=O)OC)CCO2)c(F)c1` [Compound 1], the “number of scratches in 15 minutes (mean ± s.e.m.)” value was 28.3±4.6 scratches in experiment [1] (20 μg CQ + 50 μM α,β-Me-ATP, 10 mg/kg i.p., vehicle 46.6±2.9, p=0.0084) and 44.8±3.8 scratches in experiment [1] (20 μg CQ + 100 μM α,β-Me-ATP, 10 mg/kg i.p., vehicle 67±6.3, p=0.0074, FIG. 3). The “decrease of the potentiation of CQ-induced itch by ATP” value in experiment [1] (20 μg CQ + 50 μM α,β-Me-ATP, 10 mg/kg i.p., vs vehicle) worked out at 40%. For the same compound, the “scratching behavior compared to vehicle” value in experiment [1] (20 μg CQ + 50 μM α,β-Me-ATP, 2, 10, or 50 mg/kg i.p. 30 min before, FIG. 2) is reported as “decreased scratching behavior”. Further, the “decrease of the potentiation of CQ-induced itch by higher concentrations of ATP” value in experiment [1] (20 μg CQ + 100 μM α,β-Me-ATP, 10 mg/kg i.p., vs vehicle) amounted to 33%. Further, in experiment [1] (200 μg CQ, 10 mg/kg i.p., vs vehicle), the “decrease of itch induced by high dose CQ” value was found to be 21%. Further, the “number of scratches in 30 minutes (mean ± s.e.m.)” value in experiment [1] (high dose CQ 200 μg, 10 mg/kg i.p., vehicle 280±16.1, p=0.011, FIG. 4) was found to be 221.8±12.9 scratches. Also, the “time course of spontaneous scratches in 10-min intervals” value in experiment [2] (2, 10, 50 mg/kg i.p., FIG. 6) is “significant effect on spontaneous scratches at 20 min, 40 min, 50 min, and 60 min”; in experiment [3] (2, 10, 50 mg/kg i.p., FIG. 8), “significant effect on spontaneous scratches at 10 min, 20 min, 30 min, 40 min, 50 min, and 60 min time points”. For the same compound, the “spontaneous scratches in 60 min compared to vehicle” value in experiment [2] (2, 10, or 50 mg/kg i.p., statistically significant for all doses (p<0.001), FIG. 5) is “decreased spontaneous scratches”; in experiment [3] (2, 10, or 50 mg/kg i.p., statistically significant for all three doses, FIG. 7) it was “dose-dependently decreased spontaneous scratches”.
`Nc1ncnc2c1ncn2C1OC(COP(=O)(O)CP(=O)(O)OP(=O)(O)O)C(O)C1O` (stereo not drawn) [α,β-Me-ATP, α,β-methylene-adenosine 5′-triphosphate, reference compound]: the “number of scratches (mean ± s.e.m.)” value in experiment [1] (co-injected i.d. low dose CQ (20 μg) + 10 μM α,β-Me-ATP, p=0.0013 vs CQ) was 28.2±2.2 scratches; in experiment [1] (mice injected i.d. solely with 10 μM α,β-Me-ATP) it was 2.4±0.9 scratches; in experiment [1] (mice injected i.d. solely with 50 μM α,β-Me-ATP), 5.6±1.8 scratches. In addition, the “scratching behavior compared to CQ only or CQ+10 μM α,β-Me-ATP” value in experiment [1] (co-injected i.d. low dose CQ (20 μg) + 50 μM α,β-Me-ATP, p<0.001 vs CQ, FIG. 1) is on record as “further increased scratching behaviors”.
